Assay results reported in patent US20210238225A1, “PEPTIDOMIMETIC INHIBITORS OF THE PEPTIDYL-PROLYL CIS/TRANS ISOMERASE (PIN1)” (DANA-FARBER CANCER INSTITUTE, INC., priority 2018, published 2021).
Read-outs that look alike come from different tables or passages of the source. Non-standard residues stand in square brackets, D forms with d. Residues, ends and D or L forms follow the SMILES beside them. *: point of attachment. Phe(4-CONH2) = NC(=O)c1ccc(C[C@H](N)C(=O)O)cc1; Bpa = N[C@@H](Cc1ccc(C(=O)c2ccccc2)cc1)C(=O)O; 2Nal = N[C@@H](Cc1ccc2ccccc2c1)C(=O)O; Met(O2) = CS(=O)(=O)CC[C@H](N)C(=O)O; NMeY = CN[C@@H](Cc1ccc(O)cc1)C(=O)O; NMeE = CN[C@@H](CCC(=O)O)C(=O)O; pS = N[C@@H](COP(=O)(O)O)C(=O)O; β3hE = N[C@@H](CCC(=O)O)CC(=O)O; Cha = N[C@@H](CC1CCCCC1)C(=O)O; Cit = NC(=O)NCCC[C@H](N)C(=O)O; aThr = C[C@H](O)[C@H](N)C(=O)O; Pip = O=C(O)[C@@H]1CCCCN1; Ac6c = NC1(C(=O)O)CCCCC1; 2Abz = Nc1ccccc1C(=O)O; ClAc = O=C(CCl)*

Target: Pin1 (GST-Pin1) (Homo sapiens, UniProt Q13526)
Sequence (Q13526 whole entry): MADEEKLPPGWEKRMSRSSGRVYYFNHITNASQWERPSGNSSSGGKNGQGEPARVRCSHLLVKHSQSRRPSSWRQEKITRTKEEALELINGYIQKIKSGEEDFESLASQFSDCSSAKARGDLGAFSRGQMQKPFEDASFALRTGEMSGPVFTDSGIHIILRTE
Assay: Fluorescence polarization (FP) assay, binding to Pin1
Details: competition with fluorescein-labeled peptide probe, 12 hours pre-incubation at 4° C., Kenakin Ki equation

| Compound | Ki (read-out: Ki, μM (FP Assay)) [µM] | Ki (Ki, μM (FP Assay)) [µM] |
| --- | --- | --- |
| NC(=O)C[C@H](NC(=O)[C@H](Cc1ccc2ccccc2c1)NC(=O)[C@@H]1CCCCN1C(=O)[C@H](CCC(=O)O)NC(=O)CCl)C(N)=O [Compound 2-8, (S)-4-(2-Chloroacetamido)-5-((S)-2-(((S)-1-(((S)-1,4-diamino-1,4-dioxobutan-2-yl)amino)-3-(naphthalen-2-yl)-1-oxopropan-2-yl)carbamoyl)piperidin-1-yl)-5-oxopentanoic acid] (ClAc-E[Pip][2Nal]N-NH2) | 0.13 | – |
| NC(=O)NCCC[C@H](NC(=O)[C@H](Cc1ccc2ccccc2c1)NC(=O)C1(NC(=O)[C@H](CCC(=O)O)NC(=O)CCl)CCCCC1)C(N)=O [Compound 2-10, (S)-5-((1-(((S)-1-(((S)-1-Amino-1-oxo-5-ureidopentan-2-yl)amino)-3-(naphthalen-2-yl)-1-oxopropan-2-yl)carbamoyl)cyclohexyl)amino)-4-(2-chloroacetamido)-5-oxopentanoic acid] (ClAc-E[Ac6c][2Nal][Cit]-NH2) | – | > 10 |
| CS(=O)(=O)CC[C@H](NC(=O)CCl)C(=O)N1CCCC[C@H]1C(=O)N[C@@H](Cc1ccc2ccccc2c1)C(=O)N[C@@H](CCCNC(N)=O)C(N)=O [Compound 2-14, (S)—N—((S)-1-(((S)-1-Amino-1-oxo-5-ureidopentan-2-yl)amino)-3-(naphthalen-2-yl)-1-oxopropan-2-yl)-1-((S)-2-(2-chloroacetamido)-4-(methylsulfonyl)butanoyl)piperidine-2-carboxamide] (ClAc-[Met(O2)][Pip][2Nal][Cit]-NH2) | 0.13 | – |
| NC(=O)NCCC[C@H](NC(=O)[C@H](Cc1ccc2ccccc2c1)NC(=O)[C@H](CC1CCCCC1)NC(=O)[C@H](CCC(=O)O)NC(=O)CCl)C(N)=O [Compound 2-15, (6S,9S,12S,15S)-1-Amino-6-carbamoyl-15-(2-chloroacetamido)-12-(cyclohexylmethyl)-9-(naphthalen-2-ylmethyl)-1,8,11,14-tetraoxo-2,7,10,13-tetraazaoctadecan-18-oic acid] (ClAc-E[Cha][2Nal][Cit]-NH2) | – | > 10 |
| NC(=O)NCCC[C@H](NC(=O)[C@H](Cc1ccc2ccccc2c1)NC(=O)c1ccccc1NC(=O)[C@H](CCC(=O)O)NC(=O)CCl)C(N)=O [Compound 2-16, (S)-5-((2-(((S)-1-(((S)-1-Amino-1-oxo-5-ureidopentan-2-yl)amino)-3-(naphthalen-2-yl)-1-oxopropan-2-yl)carbamoyl)phenyl)amino)-4-(2-chloroacetamido)-5-oxopentanoic acid] (ClAc-E[2Abz][2Nal][Cit]-NH2) | > 10 | – |
| COC(=O)CC[C@H](NC(=O)CCl)C(=O)N1CCCC[C@H]1C(=O)N[C@@H](Cc1ccc2ccccc2c1)C(=O)N[C@@H](CCCNC(N)=O)C(N)=O [Compound 2-18, Methyl (S)-5-((S)-2-(((S)-1-(((S)-1-amino-1-oxo-5-ureidopentan-2-yl)amino)-3-(naphthalen-2-yl)-1-oxopropan-2-yl)carbamoyl)piperidin-1-yl)-4-(2-chloroacetamido)-5-oxopentanoate] (ClAc-E(OMe)[Pip][2Nal][Cit]-NH2) | 0.14 | – |
| C[C@H](O)[C@H](NC(=O)CCl)C(=O)N1CCCC[C@H]1C(=O)N[C@@H](Cc1c[nH]c2ccccc12)C(=O)N[C@@H](CCCNC(N)=O)C(N)=O [Compound 2-20, (S)—N—((S)-1-(((S)-1-Amino-1-oxo-5-ureidopentan-2-yl)amino)-3-(1H-indol-3-yl)-1-oxopropan-2-yl)-1-((2-chloroacetyl)-L-allothreonyl)piperidine-2-carboxamide] (ClAc-[aThr][Pip]W[Cit]-NH2) | 0.122 | – |
| NC(=O)NCCC[C@H](NC(=O)[C@H](Cc1c[nH]c2ccccc12)NC(=O)[C@@H]1CCCCN1C(=O)[C@H](COP(=O)(O)O)NC(=O)CCl)C(N)=O [Compound 2-21, (S)-3-((S)-2-(((S)-1-(((S)-1-Amino-1-oxo-5-ureidopentan-2-yl)amino)-3-(1H-indol-3-yl)-1-oxopropan-2-yl)carbamoyl)piperidin-1-yl)-2-(2-chloroacetamido)-3-oxopropyl dihydrogen phosphate] (ClAc-[pS][Pip]W[Cit]-NH2) | 0.004 | – |
| COC(=O)CC[C@H](NC(=O)CCl)C(=O)N1CCCC[C@H]1C(=O)N[C@@H](Cc1c[nH]c2ccccc12)C(=O)N[C@@H](Cc1ccccc1)C(N)=O [Compound 2-23, Methyl (S)-5-((S)-2-(((S)-1-(((S)-1-Amino-1-oxo-3-phenylpropan-2-yl)amino)-3-(1H-indol-3-yl)-1-oxopropan-2-yl)carbamoyl)piperidin-1-yl)-4-(2-chloroacetamido)-5-oxopentanoate] (ClAc-E(OMe)[Pip]WF-NH2) | 0.231 | – |
| C[C@H](O)[C@H](NC(=O)CCl)C(=O)N1CCCC[C@H]1C(=O)N[C@@H](Cc1c[nH]c2ccccc12)C(=O)N[C@@H](Cc1ccc(O)cc1)C(N)=O [Compound 2-26, (S)—N—((S)-1-(((S)-1-Amino-3-(4-hydroxyphenyl)-1-oxopropan-2-yl)amino)-3-(1H-indol-3-yl)-1-oxopropan-2-yl)-1-((2-chloroacetyl)-L-allothreonyl)piperidine-2-carboxamide] (ClAc-[aThr][Pip]WY-NH2) | 0.299 | – |
| COC(=O)CC[C@H](NC(=O)CCl)C(=O)N1CCCC[C@H]1C(=O)N[C@@H](Cc1c[nH]c2ccccc12)C(=O)N(C)[C@@H](Cc1ccc(O)cc1)C(N)=O [Compound 2-28, Methyl (S)-5-((S)-2-(((S)-1-(((S)-1-amino-3-(4-hydroxyphenyl)-1-oxopropan-2-yl)(methyl)-amino)-3-(1H-indol-3-yl)-1-oxopropan-2-yl)carbamoyl)piperidin-1-yl)-4-(2-chloroacetamido)-5-oxopentanoate] (ClAc-E(OMe)[Pip]W[NMeY]-NH2) | > 10 | – |
| CN(C(=O)CCl)[C@@H](CCC(=O)O)C(=O)N1CCCC[C@H]1C(=O)N[C@@H](Cc1c[nH]c2ccccc12)C(=O)N[C@@H](Cc1ccc(O)cc1)C(N)=O [Compound 2-31, (S)-5-((S)-2-(((S)-1-(((S)-1-Amino-3-(4-hydroxyphenyl)-1-oxopropan-2-yl)amino)-3-(1H-indol-3-yl)-1-oxopropan-2-yl)carbamoyl)piperidin-1-yl)-4-(2-chloro-N-methylacetamido)-5-oxopentanoic acid] (ClAc-[NMeE][Pip]WY-NH2) | 0.07 | – |

More lines, main results first:

| Ki (read-out: Ki, μM (FP Assay)) [µM] | Compound | Ki (Ki, μM (FP Assay)) [µM] |
| --- | --- | --- |
| 0.33 | NC(=O)c1ccc(C[C@H](NC(=O)[C@H](Cc2ccc3ccccc3c2)NC(=O)[C@@H]2CCCCN2C(=O)[C@H](CCC(=O)O)NC(=O)CCl)C(N)=O)cc1 [Compound 2-9, (S)-5-((S)-2-(((S)-1-(((S)-1-Amino-3-(4-carbamoylphenyl)-1-oxopropan-2-yl)amino)-3-(naphthalen-2-yl)-1-oxopropan-2-yl)carbamoyl)piperidin-1-yl)-4-(2-chloroacetamido)-5-oxopentanoic acid] (ClAc-E[Pip][2Nal][Phe(4-CONH2)]-NH2) | – |
| 0.106 | NC(=O)NCCC[C@H](NC(=O)[C@H](Cc1ccc2ccccc2c1)NC(=O)[C@@H]1CCCCN1C(=O)C[C@H](CCC(=O)O)NC(=O)CCl)C(N)=O [Compound 2-12, (S)-6-((S)-2-(((S)-1-(((S)-1-Amino-1-oxo-5-ureidopentan-2-yl)amino)-3-(naphthalen-2-yl)-1-oxopropan-2-yl)carbamoyl)piperidin-1-yl)-4-(2-chloroacetamido)-6-oxohexanoic acid] (ClAc-[β3hE][Pip][2Nal][Cit]-NH2) | – |
| 0.13 | NC(=O)[C@H](Cc1c[nH]c2ccccc12)NC(=O)[C@H](Cc1ccc2ccccc2c1)NC(=O)[C@@H]1CCCCN1C(=O)[C@H](CCC(=O)O)NC(=O)CCl [Compound 2-13, (S)-5-((S)-2-(((S)-1-(((S)-1-Amino-3-(1H-indol-3-yl)-1-oxopropan-2-yl)amino)-3-(naphthalen-2-yl)-1-oxopropan-2-yl)carbamoyl)piperidin-1-yl)-4-(2-chloroacetamido)-5-oxopentanoic acid] (ClAc-E[Pip][2Nal]W-NH2) | – |
| 0.11 | NC(=O)NCCC[C@H](NC(=O)[C@H](Cc1ccc(C(=O)c2ccccc2)cc1)NC(=O)[C@@H]1CCCCN1C(=O)[C@H](CCC(=O)O)NC(=O)CCl)C(N)=O [Compound 2-17, (S)-5-((S)-2-(((S)-1-(((S)-1-Amino-1-oxo-5-ureidopentan-2-yl)amino)-3-(4-benzoylphenyl)-1-oxopropan-2-yl)carbamoyl)piperidin-1-yl)-4-(2-chloroacetamido)-5-oxopentanoic acid] (ClAc-E[Pip][Bpa][Cit]-NH2) | – |
| > 10 | CC(=O)N[C@@H](CCC(=O)O)C(=O)N1CCCC[C@H]1C(=O)N[C@@H](Cc1ccc2ccccc2c1)C(=O)N[C@@H](CCCNC(N)=O)C(N)=O [Compound 2-19, (S)-4-Acetamido-5-((S)-2-(((S)-1-(((S)-1-amino-1-oxo-5-ureidopentan-2-yl)amino)-3-(naphthalen-2-yl)-1-oxopropan-2-yl)carbamoyl)piperidin-1-yl)-5-oxopentanoic acid] (Ac-E[Pip][2Nal][Cit]-NH2) | – |
| 0.525 | COC(=O)CC[C@H](NC(=O)CCl)C(=O)N1CCCC[C@H]1C(=O)N[C@@H](Cc1c[nH]c2ccccc12)C(=O)N[C@@H](Cc1ccc2ccccc2c1)C(N)=O [Compound 2-24, Methyl (S)-5-((S)-2-(((S)-1-(((S)-1-Amino-3-(naphthalen-2-yl)-1-oxopropan-2-yl)amino)-3-(1H-indol-3-yl)-1-oxopropan-2-yl)carbamoyl)piperidin-1-yl)-4-(2-chloroacetamido)-5-oxopentanoate] (ClAc-E(OMe)[Pip]W[2Nal]-NH2) | – |
| > 10 | CC(=O)N[C@@H](CCC(=O)O)C(=O)N1CCCC[C@H]1C(=O)N[C@@H](Cc1c[nH]c2ccccc12)C(=O)N[C@@H](CCCNC(N)=O)C(N)=O [Compound 2-33, (S)-4-Acetamido-5-((S)-2-(((S)-1-(((S)-1-amino-1-oxo-5-ureidopentan-2-yl)amino)-3-(1H-indol-3-yl)-1-oxopropan-2-yl)carbamoyl)piperidin-1-yl)-5-oxopentanoic acid] (Ac-E[Pip]W[Cit]-NH2) | – |
